In brackets after ≈: the same amount, converted by molar mass.
Columns and labels:
[1] = system: STA 25923 (Staphylococcus aureus (ATCC25923)); test: Microtitre plate assay, IC90 determination; assay type: cell-based; settings: for IC90: Staphylococcus aureus, ATCC25923, Staphylococcus aureus (ATCC25923), read-out: IC90 (μg/ml) STA 25923; for IC90 (μg/ml) STA 25923: Staphylococcus aureus (ATCC25923)
[2] = system: BSU 43639 (Bacillus subtilis (ATCC43639)); test: Microtitre plate assay, IC90 determination; assay type: cell-based; settings: for IC90: Bacillus subtilis, ATCC43639, Bacillus subtilis (ATCC43639), read-out: IC90 (μg/ml) BSU 43639; for IC90 (μg/ml) BSU 43639: Bacillus subtilis (ATCC43639)
[3] = system: PAE 27853 (Pseudomonas aeruginosa (ATCC27853)); test: Microtitre plate assay, IC90 determination; assay type: cell-based; settings: for IC90: Pseudomonas aeruginosa, ATCC27853, Pseudomonas aeruginosa (ATCC27853), read-out: IC90 (μg/ml) PAE 27853; for IC90 (μg/ml) PAE 27853: Pseudomonas aeruginosa (ATCC27853)
[4] = system: SPY 8668 (Streptococcus pyogens (ATCC8668)); test: Microtitre plate assay, IC90 determination; assay type: cell-based; settings: for IC90: Streptococcus, ATCC8668, Streptococcus pyogens (ATCC8668), read-out: IC90 (μg/ml) SPY 8668; for IC90 (μg/ml) SPY 8668: Streptococcus pyogens (ATCC8668)
[5] = system: STA RMETH (methicilline resistant Staphylococcus aureus (MRSA), a clinical isolate from the University of Antwerp); test: Microtitre plate assay, IC90 determination; assay type: cell-based; settings: for IC90: Staphylococcus aureus, MRSA, read-out: IC90 (μg/ml) STA RMETH
[6] = system: EFA 29212 (Enterococcus faecalis (ATCC29212)); test: Microtitre plate assay, IC90 determination; assay type: cell-based; settings: for IC90: Enterococcus faecalis, ATCC29212, Enterococcus faecalis (ATCC29212), read-out: IC90 (μg/ml) EFA 29212; for IC90 (μg/ml) EFA 29212: Enterococcus faecalis (ATCC29212)
[7] = system: LMO 49594 (Listeria monocytogenes (ATCC49594)); test: Microtitre plate assay, IC90 determination; assay type: cell-based; settings: for IC90: Listeria monocytogenes, ATCC49594, Listeria monocytogenes (ATCC49594), read-out: IC90 (μg/ml) LMO 49594; for IC90 (μg/ml) LMO 49594: Listeria monocytogenes (ATCC49594)
[8] = system: SPN 6305 (Streptococcus pneumoniae (ATCC6305)); test: Microtitre plate assay, IC90 determination; assay type: cell-based; settings: for IC90 (μg/ml) SPN 6305: Streptococcus pneumoniae (ATCC6305); for IC90: Streptococcus pneumoniae, ATCC6305, Streptococcus pneumoniae (ATCC6305), read-out: IC90 (μg/ml) SPN 6305
How it was run: (§1)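 Growth-inhibition endpoint: resazurin added 3 h after inoculation, plates incubated overnight, fluorescence at 530/590 nm after 24 h at 37 °C. Inocula of roughly 10–60 CFU per well in Mueller-Hinton medium; compounds titrated five-fold. IC90 reported as μg/ml.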

[9] = system: STA 29213 (Staphylococcus aureus (ATCC29213)); test: Microtitre plate assay, IC90 determination; assay type: cell-based; settings: for IC90 (μg/ml) STA 29213: Staphylococcus aureus (ATCC29213); for IC90: Staphylococcus aureus, ATCC29213, Staphylococcus aureus (ATCC29213), read-out: IC90 (μg/ml) STA 29213
How it was run: as §1

Compound	IC90 [1] [µg/mL]	IC90 [2] [µg/mL]	IC90 [3] [µg/mL]	IC90 [4] [µg/mL]	IC90 [5] [µg/mL]	IC90 [6] [µg/mL]	IC90 [7] [µg/mL]	IC90 (μg/ml) SPN 6305 [8] [µg/mL]	IC90 (μg/ml) STA 29213 [9] [µg/mL]	melting point [°C]	IC90 [8] [µg/mL]	IC90 (μg/ml) STA 25923 [1] [µg/mL]	IC90 (μg/ml) PAE 27853 [3] [µg/mL]	IC90 (μg/ml) SPY 8668 [4] [µg/mL]	IC90 (μg/ml) STA RMETH [5] [µg/mL]	IC90 (μg/ml) LMO 49594 [7] [µg/mL]	IC90 (μg/ml) BSU 43639 [2] [µg/mL]	IC90 (μg/ml) EFA 29212 [6] [µg/mL]	IC90 [9] [µg/mL]
COc1ccc2cc(C(O)(CCCCN(C)C)C(c3ccccc3)c3cc4ccc(Br)cc4nc3OC)ccc2c1 (stereo not drawn) [Compound 31]	12.2 (≈ 19.9 µM)	9.7 (≈ 15.8 µM)	1.9 (≈ 3.1 µM)	4.3 (≈ 7.01 µM)	4.3 (≈ 7.01 µM)	10.9 (≈ 17.8 µM)	4.3 (≈ 7.01 µM)	9.7 (≈ 15.8 µM)	1.9 (≈ 3.1 µM)	–	–	–	–	–	–	–	–	–	–
COc1nc2ccccc2cc1C(c1ccccc1)C(O)(CCCCN(C)C)c1ccc2ccccc2c1 (stereo not drawn) [Compound 36]	–	–	–	–	–	–	–	9.0 (≈ 17.8 µM)	8.0 (≈ 15.9 µM)	105	–	–	–	–	–	–	–	–	–
COc1nc2ccc(-c3cccnc3)cc2cc1C(c1ccccc1)C(O)(CCCCN(C)C)c1ccccc1 (stereo not drawn) [Compound 42]	–	–	–	–	–	–	–	–	–	203	53.2 (≈ 100 µM)	–	–	–	–	–	–	–	–
COc1nc2ccc(Br)cc2cc1C(c1ccccc1)C(O)(CCCN(C)C)c1ccccc1 (stereo not drawn) [Compound 44]	–	41.3 (≈ 79.5 µM)	–	–	–	26 (≈ 50 µM)	–	11.6 (≈ 22.3 µM)	10.4 (≈ 20 µM)	–	–	13.1 (≈ 25.2 µM)	10.4 (≈ 20 µM)	9.2 (≈ 17.7 µM)	13.1 (≈ 25.2 µM)	13.1 (≈ 25.2 µM)	–	–	–
COc1nc2ccc(Br)cc2cc1C(c1ccccc1)C(O)(CCCN(C)C)c1ccccc1 (stereo not drawn) [Compound 45]	–	–	–	–	–	–	–	52.0 (≈ 100 µM)	41.3 (≈ 79.5 µM)	–	–	41.3 (≈ 79.5 µM)	52.0 (≈ 100 µM)	52.0 (≈ 100 µM)	41.3 (≈ 79.5 µM)	41.3 (≈ 79.5 µM)	52.0 (≈ 100 µM)	52.0 (≈ 100 µM)	–
COc1nc2ccc(Br)cc2cc1C(c1ccccc1)C(O)(CCCN(C)C)c1ccc2ccccc2c1 (stereo not drawn) [Compound 46]	–	–	12.8 (≈ 22.5 µM)	–	–	50.8 (≈ 89.2 µM)	–	57.0 (≈ 100 µM)	–	–	–	50.8 (≈ 89.2 µM)	–	50.8 (≈ 89.2 µM)	50.8 (≈ 89.2 µM)	45.2 (≈ 79.4 µM)	57.0 (≈ 100 µM)	–	57 (≈ 100 µM)
COc1nc2ccc(Br)cc2cc1C(c1ccccc1)C(O)(CCCN(C)C)c1ccc2ccccc2c1 (stereo not drawn) [Compound 47]	–	–	–	–	–	–	–	5.1 (≈ 8.95 µM)	57.0 (≈ 100 µM)	–	–	12.8 (≈ 22.5 µM)	10.1 (≈ 17.7 µM)	11.4 (≈ 20 µM)	12.8 (≈ 22.5 µM)	2.3 (≈ 4.04 µM)	11.4 (≈ 20 µM)	25.4 (≈ 44.6 µM)	–

Results, then the molecule that gave them:

IC90 [1] [µg/mL]	IC90 [2] [µg/mL]	IC90 [3] [µg/mL]	IC90 [4] [µg/mL]	IC90 [5] [µg/mL]	IC90 [6] [µg/mL]	IC90 [7] [µg/mL]	IC90 (μg/ml) SPN 6305 [8] [µg/mL]	IC90 (μg/ml) STA 29213 [9] [µg/mL]	melting point [°C]	IC90 [8] [µg/mL]	IC90 (μg/ml) STA 25923 [1] [µg/mL]	IC90 (μg/ml) PAE 27853 [3] [µg/mL]	IC90 (μg/ml) SPY 8668 [4] [µg/mL]	IC90 (μg/ml) STA RMETH [5] [µg/mL]	IC90 (μg/ml) LMO 49594 [7] [µg/mL]	IC90 (μg/ml) BSU 43639 [2] [µg/mL]	IC90 (μg/ml) EFA 29212 [6] [µg/mL]	IC90 [9] [µg/mL]	Compound
14.3 (≈ 25.1 µM)	14.3 (≈ 25.1 µM)	11.4 (≈ 20 µM)	11.4 (≈ 20 µM)	14.3 (≈ 25.1 µM)	57 (≈ 100 µM)	14.3 (≈ 25.1 µM)	–	–	–	14.3 (≈ 25.1 µM)	–	–	–	–	–	–	–	45.2 (≈ 79.4 µM)	COc1nc2ccc(Br)cc2cc1C(c1ccccc1)C(O)(CCCN(C)C)c1cccc2ccccc12 (stereo not drawn) [Compound 50]
15 (≈ 25.1 µM)	15 (≈ 25.1 µM)	–	13.4 (≈ 22.4 µM)	15 (≈ 25.1 µM)	59.8 (≈ 100 µM)	15 (≈ 25.1 µM)	11.9 (≈ 19.9 µM)	59.8 (≈ 100 µM)	–	–	–	47.5 (≈ 79.5 µM)	–	–	–	–	–	–	CCN(CC)CCCC(O)(c1ccc2ccccc2c1)C(c1ccccc1)c1cc2cc(Br)ccc2nc1OC (stereo not drawn) [Compound 51]
–	–	–	–	–	–	–	2.4 (≈ 4.02 µM)	15.0 (≈ 25.1 µM)	–	–	15.0 (≈ 25.1 µM)	11.9 (≈ 19.9 µM)	11.9 (≈ 19.9 µM)	15.0 (≈ 25.1 µM)	15.0 (≈ 25.1 µM)	15.0 (≈ 25.1 µM)	47.5 (≈ 79.5 µM)	–	CCN(CC)CCCC(O)(c1ccc2ccccc2c1)C(c1ccccc1)c1cc2cc(Br)ccc2nc1OC (stereo not drawn) [Compound 52]
–	–	–	–	–	–	–	–	–	174	10.7 (≈ 20 µM)	–	–	–	–	–	–	–	8.47 (≈ 15.8 µM)	COc1nc2ccc(CO)cc2cc1C(c1ccccc1)C(O)(CCCCN(C)C)c1ccc2ccccc2c1 (stereo not drawn) [Compound 55]
–	–	–	–	–	–	–	1.61 (≈ 2.52 µM)	2.02 (≈ 3.16 µM)	138	–	–	–	–	2.55 (≈ 3.99 µM)	–	–	–	–	CCN(CC)CCCCC(O)(CCc1cccc2ccccc12)C(c1ccccc1)c1cc2cc(Br)ccc2nc1OC (stereo not drawn) [Compound 72]

Source: patent US8841321B2, “Quinoline derivatives as antibacterial agents” (Janssen Pharmaceutica NV, priority 2005, dated 2014)
